Literature values in publication PMC8541353, “A Novel Phenylpyrrolidine Derivative: Synthesis and Effect on Cognitive Functions in Rats with Experimental Ishemic Stroke” (Molecules, 2021).

Details: cited from earlier work

## NC(=O)CN1CC(O)CC1=O (centres unmarked) [Oxiracetam]
  Literature Report of BBB Permeability: Low [20]

## CC[C@@H](C(N)=O)N1C[C@H](C=C(F)F)CC1=O [Seletracetam]
  Literature Report of BBB Permeability: Very good [19]
